Measurements published in paper PMC6133161, “Thiazoles with cyclopropyl fragment as antifungal, anticonvulsant, and anti-Toxoplasma gondii agents: synthesis, toxicity evaluation, and molecular docking study” (Medicinal Chemistry Research, 2018).

Tested on: all tested strains of Candida
Test: Antifungal screening, all strains
Assay type: cell-based
From the text: The examined compounds 3a–3j were screened in vitro for antibacterial and antifungal activities using the broth microdilution method according to European Committee on Antimicrobial Susceptibility Testing (EUCAST) (EUCAST [2003]) and Clinical and Laboratory Standards Institute guidelines (CLSI [2012]) against reference strains of microorganisms from American Type Culture Collection (ATCC), including fungi belonging to yeasts (Candida albicans ATCC 2091, Candida albicans ATCC 10231, Candida parapsilosis ATCC 22019 and Candida krusei ATCC 14243).
In the study of antifungal activity of the compounds 3a–3j, 15 clinical strains of different species of yeasts from Candida species, namely C. albicans, C. dubliniensis C. famata, C. inconspicua, C. krusei, C. tropicalis, C. glabrata, C. lambica, C. kefyr, C. lusitaniae, C. parapsilosis, C. guilliermondii, C. lusitaniae, C. pulcherrima and C. sake were also used. […] After incubation, the MIC was assessed spectrophotometric as the lowest concentration of the samples showing complete fungal growth inhibition. […] MFC was determined by removing the culture using for MIC determinations from each well and spotting onto appropriate agar medium. […] The lowest compounds concentration with no visible growth observed was assessed as a fungicidal concentration. […]

## FC(F)(F)c1ccc(-c2csc(N/N=C/C3CC3)n2)cc1 [Compound 3e, (E)-2-(2-(Cyclopropylmethylene)hydrazinyl)-4-(4-(trifluoromethyl)phenyl)thiazole]
  antifungal activity: inactive
